Measured values as given in US20230067194A1, “METHOD FOR TREATMENT OF ACQUIRED COGNITIVE DEFICITS” (CORNELL UNIVERSITY, priority 2020, published 2023).
Entries after “also recorded” stand apart in the source; their conditions may differ.

Columns and labels:
SBI mice = assay: Sleep-wake cycle LFP power spectra in secondary-blast injury (SBI) mice with sodium oxybate injection; type: in vivo
Method: FIGS. 7A-7B. Effects of sodium oxybate injection on the sleep-wake cycle of SBI mice. The top panels display the delta power during the dark (blue; daytime) and light (yellow; sleep time) within 24 hours in (A) Non-REM, or (B) Wake mice. The pink vertical lines represent the time in which animals received an intraperitoneal injection of sodium oxybate (SO; 400 mg/Kg) diluted in saline. The bottom panels show the LFP power spectra obtained from sleep periods and wake periods with and without sodium oxybate. In (A), the dark blue line represents NREM sleep without sodium oxybate administration and the red line represents NREM sleep with sodium oxybate administration. In (B), the dark blue line represents Wake without sodium oxybate administration during prior sleep and the red line represents Wake with sodium oxybate administration during prior sleep. Application of sodium oxybate during the night results in elevation of delta (1-5 Hz) LFP power and increases during the subsequent wakeful period in beta (15-30 Hz) and gamma (>30 Hz) LFP. Importantly, consistent with our theory because of the short half-life of sodium oxybate these changes in wakeful LFP power reflect alteration of cortical neuronal properties linked to the increased delta during sleep induced by sodium oxybate.
The inventors inflicted a secondary-blast injury (SBI) to mice targeting the anterior forebrain mesocircuit, which corresponds to the frontal/prefrontalcortical-pallidal thalamocortical loop systems.
The inventors examined animals' sleep-wake cycle before, after the SBI, and while injecting sodium oxybate (400 mg/Kg; FIG. 7A-7B). Local field potentials (LFPs) were recorded from the frontal area and neck-EMG activity to detect and extract the different sleep/wake cycle components—Non-REM, REM, and Wake state. The inventors examined the whole range of biological LFP frequencies before and after sodium oxybate injection by calculating power spectral density using Thomson's multi-taper method implemented using the Chronux tool box from MATLAB.

[1] = cited from earlier work
[2] = FIG. 7 legend, intraperitoneal 400 mg/Kg during prior sleep
[3] = wake state post-sodium oxybate injection (400 mg/Kg), 400 mg/kg

O=C(O)CCCO [sodium oxybate]
beta (15-30 Hz) LFP power during the subsequent wakeful period (SBI mice; [2]): increases | gamma (>30 Hz) LFP power during the subsequent wakeful period (SBI mice; [2]): increases | delta (1-5 Hz) LFP power (SBI mice; FIG. 7 legend, intraperitoneal 400 mg/Kg in saline, application during the night, NREM sleep): elevation | delta oscillations (1-4 Hz) LFP power in Non-REM (SBI mice; sodium oxybate 400 mg/Kg injected right before the sleep time (9 pm), frontal LFP): increase; also recorded: elevation | beta (20-40 Hz) LFP power during the wake state (SBI mice; [3]): higher; also recorded: increases | gamma (>40 Hz) LFP power during the wake state (SBI mice; [3]): higher; also recorded: increases | persistence of the elevation of delta power during the wakeful period (SBI mice; wakeful period after night application of sodium oxybate): does not persist | SWS (slow wave sleep) ([1]; dose-dependent): dose-dependent upregulation | alpha-delta sleep ([1]; in several conditions): suppress alpha-delta sleep
